Experimental data from the OligoGym collection.
Several values for one entry are separate records, joined by “and”; a condition that tells them apart may be missing. Identical values can stand only once. After the bases stand the sugars from the 5' end (letter, count) and the backbone: PS all phosphorothioate, else s phosphorothioate and o phosphodiester by linkage. Methylation of C is not given here. e = 2'-O-(2-methoxyethyl) (MOE); d = 2'-deoxy (DNA)

Target: DGAT2
Conditions: ASO

Row | Sequence | target mRNA inhibition (HepG2, 2.5 µM) | target mRNA inhibition (HepG2, 10 µM) | target mRNA inhibition (HepG2, 0.12 µM) | target mRNA inhibition (HepG2, 20 µM)
1 | CAGATCTTCATTACATGATT (sugars e5 d10 e5, PS) | 71% | 89% | – | –
2 | CAGCAGATGATGTCCTGCCT (sugars e5 d10 e5, PS) | 66% | 88% | – | –
3 | CAGCAGGTTGTGTGTCTTCA (sugars e5 d10 e5, PS) | 16% and 39% | 63% and 79% | 66% and 75% | –
4 | CAGCAGTCTGCCTGATTCCC (sugars e5 d10 e5, PS) | 66% | 94% | – | –
5 | CAGCCAAGTGAAGTAGAGCA (sugars e5 d10 e5, PS) | – | – | 41% | –
6 | CAGCCTGGACAAGTCCTGCC (sugars e2 d13 e5, PS) | – | – | 72% | –
7 | CAGGAAGGCACAGAAAAGTG (sugars e5 d10 e5, PS) | – | – | 28% | –
8 | CAGGACCCACTGGAGCACTG (sugars e5 d10 e5, PS) | – | – | 80% | 83%
9 | CAGGTAGAGTTCTATTGCTT (sugars e5 d10 e5, PS) | 68% and 55% | 89% and 82% | – | –
10 | CAGGTTCATCTGCCTTGACG (sugars e5 d10 e5, PS) | 69% | 72% | – | –
11 | CAGGTTGTGTGTCTTCACCA (sugars e5 d10 e5, PS) | – | 74% | 68% and 76% | 87%
12 | CAGTGCCTACAGCAGAGGGA (sugars e5 d10 e5, PS) | – | – | 0% | –
13 | CAGTGCTTTCTAAGTACCCT (sugars e5 d10 e5, PS) | 68% and 69% | 91% and 86% | – | –
14 | CAGTGGGCCCCAGGTGGCTC (sugars e5 d10 e5, PS) | – | – | 46% | –
15 | CATACTGGCATCTGGCAGGG (sugars e5 d10 e5, PS) | 65% | 83% | – | –
16 | CATTCTTTGAAAGCAAATAG (sugars e5 d10 e5, PS) | – | – | 15% | –
17 | CATTGCCACTCCCATTCTTT (sugars e3 d14 e3, PS) | – | – | 46% | –
18 | CCAACTCTCAGCTACTCCCC (sugars e5 d10 e5, PS) | 95% | 79% | – | –
19 | CCACAGGGCCCTTTCCAGAA (sugars e5 d10 e5, PS) | 58% and 53% | 87% and 85% | – | –
20 | CCACTGGAGCACTGAGATGA (sugars e3 d14 e3, PS) | – | – | 62% | –
21 | CCAGCTGGATGGGAAAGTAG (sugars e5 d10 e5, PS) | – | – | 24% | –
22 | CCAGGGCCTCCATGTACATG (sugars e2 d13 e5, PS) | – | – | 69% | –
23 | CCAGTTTCGGACCCACTGTG (sugars e5 d10 e5, PS) | 28% | 31% | 83% | 65%

Row | Sequence | target mRNA inhibition (HepG2, 2.5 µM) | target mRNA inhibition (HepG2, 10 µM) | target mRNA inhibition (HepG2, 0.12 µM) | target mRNA inhibition (HepG2, 20 µM)
24 | CCATGTACATGGTGTGGTAC (sugars e5 d10 e5, PS) | – | – | 52% | –
25 | CCCACTGGAGCACTGAGATG (sugars e3 d14 e3, PS) | – | – | 75% | –
26 | CCCAGATTTAGCCACCACCT (sugars e5 d10 e5, PS) | 56% | 72% | – | –
27 | CCCAGTACTTTCTTCTCATG (sugars e5 d10 e5, PS) | 72% | 96% | – | –
28 | CCCAGTTTCGGACCCACTGT (sugars e2 d13 e5, PS) | – | – | 70% | –
29 | CCCAGTTTCGGACCCACTGT (sugars e3 d14 e3, PS) | – | – | 76% | –
30 | CCCAGTTTCGGACCCACTGT (sugars e5 d10 e5, PS) | 24% and 25% | 33% | 85% | 57%
31 | CCCATCTCCCAGACCCCTCG (sugars e5 d10 e5, PS) | – | – | 12% | –
32 | CCCTCTTAGAAGTAATGCTT (sugars e5 d10 e5, PS) | – | 85% and 89% | – | –
33 | CCGGAGTAGGCGGCTATGAG (sugars e5 d10 e5, PS) | – | – | 37% | –
34 | CCTCCTTAGCTTTAATCCAG (sugars e5 d10 e5, PS) | 43% | 82% | – | –
35 | CCTCTGCTTCTTGGGCATCT (sugars e5 d10 e5, PS) | 92% and 91% | 91% and 89% | – | –
36 | CCTGGACAAGTCCTGCCCAT (sugars e2 d13 e5, PS) | – | – | 59% | –
37 | CCTGGTGGTCAGCAGGTTGT (sugars e5 d10 e5, PS) | – | – | 64% | –
38 | CGAAGATCACCTGCTTGTAC (sugars e5 d10 e5, PS) | – | – | 63% | –
39 | CGCGCAGGACCCCGGAGTAG (sugars e2 d13 e5, PS) | – | – | 67% | –
40 | CGGACTGAATGTCACCT (sugars e3 d10 e4, PS) | 60% and 68% | 87% and 83% | – | –
41 | CTCAGAGACTCAGCCGCACC (sugars e2 d13 e5, PS) | – | – | 43% | –
42 | CTCCTGTTTGATGGGTAAAA (sugars e5 d10 e5, PS) | 90% | 80% | – | –
43 | CTGCATAGCTGAGCAAATCC (sugars e5 d10 e5, PS) | 52% | 70% | – | –
44 | CTGCCACCTTCCAGGGAATA (sugars e5 d10 e5, PS) | – | – | 27% | –
45 | CTGCCATTTAATGAGCTTCA (sugars e5 d10 e5, PS) | – | 94% and 95% and 89% | – | –
46 | CTGCTTGTACACTTCATTCT (sugars e5 d10 e5, PS) | – | – | 58% | –

Row | Sequence | target mRNA inhibition (HepG2, 2.5 µM) | target mRNA inhibition (HepG2, 10 µM) | target mRNA inhibition (HepG2, 0.12 µM) | target mRNA inhibition (HepG2, 20 µM)
47 | CTGGACAAGTCCTGCCCATC (sugars e2 d13 e5, PS) | – | – | 58% | –
48 | CTGGACAAGTCCTGCCCATC (sugars e5 d10 e5, PS) | – | – | 77% | –
49 | CTGGATGGGAAAGTAGTCTC (sugars e5 d10 e5, PS) | – | – | 38% | –
50 | CTGTGAGGCCAAGGACAGAG (sugars e5 d10 e5, PS) | 50% | 81% | – | –
51 | CTGTGCTCTGTGGGCTCCTC (sugars e5 d10 e5, PS) | 57% | 89% | – | –
52 | CTTCTGGACCCATCGGCCCC (sugars e5 d10 e5, PS) | – | – | 30% | –
53 | CTTCTTCTGGACCCATCGGC (sugars e5 d10 e5, PS) | – | – | 27% | –
54 | CTTGGGTGTGTTCCAGTCAA (sugars e5 d10 e5, PS) | – | – | 5% | –
55 | CTTGTGCTTGTCGAAGAGCT (sugars e5 d10 e5, PS) | 33% | 66% | – | –
56 | CTTTGAAATCCAATGCACCT (sugars e5 d10 e5, PS) | 65% | 92% | – | –
57 | GAAATCCAATGCACCTTGTA (sugars e5 d10 e5, PS) | 63% | 94% | – | –
58 | GAAGTCAGGCCAAGTGCCAA (sugars e5 d10 e5, PS) | – | – | 26% | –
59 | GAATGGTGTGTTGGCTCCCT (sugars e5 d10 e5, PS) | 54% | 75% | – | –
60 | GACAAAGTCTATCAGGATGC (sugars e5 d10 e5, PS) | 88% and 67% | 92% and 91% | – | –
61 | GACACACAATATCCATGGAC (sugars e5 d10 e5, PS) | 72% | 93% | – | –
62 | GACTCAGTGTCCTCCTTAGC (sugars e5 d10 e5, PS) | – | 73% | – | –
63 | GACTTCCCTTCACAGAATCC (sugars e5 d10 e5, PS) | – | – | 5% | –
64 | GAGATGGTGATAAGGCAGCA (sugars e5 d10 e5, PS) | 46% and 50% | 80% | – | –
65 | GAGCACTTGATCTGGGACCC (sugars e5 d10 e5, PS) | 80% and 71% | 92% and 91% | – | –
66 | GAGCTCAGAGACTCAGCCGC (sugars e3 d14 e3, PS) | – | 72% and 73% | 89% | –
67 | GAGTAGGCGGCTATGAGGGT (sugars e5 d10 e5, PS) | – | – | 11% | –
68 | GAGTATAGAAATTTCACTGA (sugars e5 d10 e5, PS) | – | – | 44% | –
69 | GAGTCTGTGCTGCATCCATG (sugars e5 d10 e5, PS) | – | – | 48% | –

Row | Sequence | target mRNA inhibition (HepG2, 2.5 µM) | target mRNA inhibition (HepG2, 10 µM) | target mRNA inhibition (HepG2, 0.12 µM) | target mRNA inhibition (HepG2, 20 µM)
70 | GATAGCATTGCCACTCCCAT (sugars e2 d13 e5, PS) | – | – | 62% | –
71 | GATCACCTGCTTGTACACTT (sugars e5 d10 e5, PS) | 36% | 64% | – | –
72 | GATTATTCTAAAACTCAAAT (sugars e5 d10 e5, PS) | – | – | 0% | –
73 | GATTTGTACTTGAATCCAGG (sugars e5 d10 e5, PS) | – | – | 34% | –
74 | GCAAATAGTCTATGGTGTCC (sugars e5 d10 e5, PS) | – | – | 60% | –
75 | GCACAGCGATGAGCCAGCAA (sugars e5 d10 e5, PS) | 50% and 45% and 69% | 92% and 89% and 94% | – | –
76 | GCACCAAGGAATGGTGTGTT (sugars e5 d10 e5, PS) | 16% | 38% | – | –
77 | GCACCATAATCTGCACAGGT (sugars e5 d10 e5, PS) | 88% and 86% | 93% and 89% and 92% | – | –
78 | GCACCTTGTATTAAATACTC (sugars e5 d10 e5, PS) | 75% | 91% | – | –
79 | GCAGCAGGTACTCATGTTTG (sugars e5 d10 e5, PS) | 54% | 75% | – | –
80 | GCAGCCTGGACAAGTCCTGC (sugars e2 d13 e5, PS) | – | – | 77% | –
81 | GCAGGACCCCGGAGTAGGCG (sugars e3 d14 e3, PS) | – | – | 70% | –
82 | GCAGGCCTCGGGAAGCACCT (sugars e5 d10 e5, PS) | 69% and 67% | 93% and 87% | – | –
83 | GCAGGTTCATCTGCCTTGAC (sugars e5 d10 e5, PS) | 80% and 65% | 81% and 85% | – | –
84 | GCCAACAAGTGGGAAATGCA (sugars e5 d10 e5, PS) | 51% | 80% | – | –
85 | GCCAAGGACAGAGGTTCAAC (sugars e5 d10 e5, PS) | 61% | 90% | – | –
86 | GCCAATGCCTAGGTCACAGT (sugars e5 d10 e5, PS) | 87% and 93% | 84% and 90% | – | –
87 | GCCAGGTAAGGCCGTATGCC (sugars e5 d10 e5, PS) | – | – | 68% | –
88 | GCCAGTTTCACAAAGCCCTT (sugars e5 d10 e5, PS) | – | – | 34% | –
89 | GCCCAGCACCAAGGAATGGT (sugars e5 d10 e5, PS) | 0% | 59% | – | –
